How the values were obtained:
[1] = human
[2] = human; remark: listed apart in the source
[3] = human; remark: listed apart in the source
[4] = human; remark: listed apart in the source
[5] = human; remark: listed apart in the source
[6] = human; remark: listed apart in the source
[7] = human, serum
[8] = Highest frequency of moderate liver toxicity observed during clinical trials, expressed as a percentage. [column '% BIOL' in source]; settings: human
[9] = human, serum; remark: listed apart in the source
[10] = Highest frequency of acute liver toxicity observed during clinical trials, expressed as a percentage. [column '% AIGUE' in source]; settings: human
[11] = human; remark: listed apart in the source
[12] = human, serum, 4383 h
[13] = human; remark: listed apart in the source
[14] = human; remark: listed apart in the source
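Throughout, for Hepatotoxicity (association with vascular disease): count of indexed literature references reporting vascular liver injury in humans, e.g. peliosis hepatitis, hepatic veno-occlusive disease or Budd-Chiari syndrome.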
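Throughout, for Hepatotoxicity (benign tumour): value is a count of indexed literature references citing a benign tumour confirmed by histopathology.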
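Throughout, for Hepatotoxicity (choleostasis): human cholestatic liver injury, shown by histopathology or by peak ALT or AST elevation over alkaline phosphatase ratio below 2, value counts indexed literature reports.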
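Throughout, for Hepatotoxicity (chronic liver disease): chronic liver injury confirmed by histopathology or persistently raised serum aminotransferase activity beyond 6 months, value given as the count of indexed literature references.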
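Throughout, for Hepatotoxicity (cirrhosis): value is a count of indexed literature references reporting cirrhosis confirmed by histopathology.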
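Throughout, for Hepatotoxicity (cytolytic): human cytolytic liver injury, shown by histopathology or by a ratio above 5 of peak ALT or AST elevation to alkaline phosphatase elevation, value counts indexed references.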
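Throughout, for Hepatotoxicity (granulomatous hepatitis): value is a count of indexed literature references reporting granulomatous liver disease confirmed by histopathology.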
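Throughout, for Hepatotoxicity (malignant tumour): malignant tumour confirmed by histopathology, value gives the count of indexed literature references reporting it.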
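Throughout, for Hepatotoxicity (severe hepatitis): human clinical data: severe hepatitis, meaning potentially life-threatening liver failure or clinically observed cases, the value counts how many indexed literature references report it.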
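Throughout, for Hepatotoxicity (steatosis): steatosis confirmed by histopathology, value is the count of indexed references.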

| SMILES | Hepatotoxicity (choleostasis) [1] | Hepatotoxicity (severe hepatitis) [2] | Hepatotoxicity (granulomatous hepatitis) [3] | Hepatotoxicity (cytolytic) [4] | Hepatotoxicity (benign tumour) [5] | Hepatotoxicity (association with vascular disease) [6] | Hepatotoxicity (moderate) [7] | Hepatotoxicity (moderate) [8] [%] | Hepatotoxicity (acute) [9] | Hepatotoxicity (acute) [10] [%] | Hepatotoxicity (steatosis) [11] | Hepatotoxicity (chronic liver disease) [12] | Hepatotoxicity (cirrhosis) [13] | Hepatotoxicity (malignant tumour) [14] |
| --- | --- | --- | --- | --- | --- | --- | --- | --- | --- | --- | --- | --- | --- | --- |
| O=C(O)[C@@H](S)[C@@H](S)C(=O)O | 0 | 0 | 0 | 0 | 0 | 0 | 3 | 56.7 | 0 | 0 | 0 | 0 | 0 | 0 |
| NS(=O)(=O)OCCCCCCCOS(N)(=O)=O | 0 | 0 | 0 | 0 | 0 | 0 | 2 | 25 | 0 | 0 | 0 | 0 | 0 | 0 |
| CO[C@@H]1O[C@H](CO)[C@H](O)[C@H](O[C@@H]2O[C@@H](C(=O)O)[C@@H](OC)[C@H](O)[C@H]2O)[C@H]1NC(C)=O | 0 | 0 | 0 | 0 | 0 | 0 | 1 | 0 | 0 | 0 | 0 | 0 | 0 | 0 |
| CC[N+](C)(C/C=C/C1=C(C(=O)[O-])N2C(=O)[C@@H](NC(=O)/C(=N\OCF)c3nsc(N)n3)[C@H]2SC1)CC(N)=O (some centres undefined) | 0 | 0 | 0 | 0 | 0 | 0 | 51 | 37.5 | 0 | 0 | 0 | 0 | 0 | 0 |
| CO/N=C(\C(=O)N[C@@H]1C(=O)N2C(C(=O)O)=C(C)CS[C@H]12)c1csc(N)n1 | 0 | 0 | 0 | 0 | 0 | 0 | 30 | 23.1 | 0 | 0 | 0 | 0 | 0 | 0 |
| Cc1c(C)c2ccc(OCCCN3CCN(Cc4ccc(Cl)cc4)CC3)cc2oc1=O | 0 | 0 | 0 | 0 | 0 | 0 | 1 | 2 | 0 | 0 | 0 | 0 | 0 | 0 |
| O=C(Nc1cccc2c(=O)cc(-c3nnn[nH]3)oc12)c1ccc(OCCCCc2ccccc2)cc1 | 0 | 0 | 0 | 0 | 0 | 0 | 1 | 2.1 | 0 | 0 | 0 | 0 | 0 | 0 |
| CNC(=O)[C@@H](NC(=O)[C@H](CC(C)C)[C@H](O)C(=O)NO)C(C)(C)C | 0 | 0 | 0 | 0 | 0 | 0 | 1 | 0 | 0 | 0 | 0 | 0 | 0 | 0 |
| CC(CCC(=O)O)C1CC[C@H]2[C@@H]3CC[C@@H]4C[C@H](O)CC[C@]4(C)[C@H]3CC[C@]12C (some centres undefined) | 0 | 0 | 0 | 0 | 0 | 0 | 1 | 11.1 | 0 | 0 | 0 | 0 | 0 | 0 |
| CC(OC(=O)OC1CCCCC1)OC(=O)C1=C(CSc2nnnn2CCN(C)C)CS[C@@H]2[C@H](NC(=O)Cc3csc(N)n3)C(=O)N12 (some centres undefined) | 0 | 0 | 0 | 0 | 0 | 0 | 25 | 28.6 | 0 | 0 | 0 | 0 | 0 | 0 |
| CO/N=C(\C(=O)N[C@@H]1C(=O)N2C(C(=O)OCOC(=O)C(C)(C)C)=C(Cn3nnc(C)n3)CS[C@H]12)c1csc(N)n1 | 0 | 0 | 0 | 0 | 0 | 0 | 9 | 3.3 | 0 | 0 | 0 | 0 | 0 | 0 |
| CN1CC[C@@H]2Nc3ccccc3[C@@H]2C1.Cl.Cl | 1 | 0 | 0 | 0 | 0 | 0 | 0 | 0 | 1 | 0 | 0 | 0 | 0 | 0 |
| COc1ccc(/C=C/C(=O)Nc2ccccc2C(=O)O)cc1OC | 0 | 0 | 0 | 0 | 0 | 0 | 6 | 7.5 | 1 | 0 | 0 | 0 | 0 | 0 |
| CCN1CCN(C(=O)N[C@@H](C(=O)N[C@@H]2C(=O)N3[C@@H]2SC(C)(C)[C@@H]3C(=O)O)c2ccccc2)C(=O)C1=O.C[C@]1(Cn2ccnn2)[C@H](C(=O)O)N2C(=O)C[C@H]2S1(=O)=O | 0 | 0 | 0 | 0 | 0 | 0 | 46 | 33.3 | 0 | 0 | 0 | 0 | 0 | 0 |
| CCOC(=O)[C@H](CCc1ccccc1)N[C@@H](C)C(=O)N(CC(=O)O)C1Cc2ccccc2C1 | 0 | 0 | 0 | 0 | 0 | 0 | 1 | 1.1 | 0 | 0 | 0 | 0 | 0 | 0 |
| [Se] | 0 | 0 | 0 | 0 | 0 | 0 | 0 | 0 | 0 | 0 | 1 | 0 | 0 | 0 |
